Source: PubChem BioAssay (NCI)
Where “and” joins values, the source holds several entries; their conditions need not be identical. Equal values may be shown once.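 Values below derive from 48-hour exposures of cells grown in 96-well plates, with endpoints linearly interpolated between the two concentrations bracketing the appropriate inhibition level. GI50: concentration for 50% inhibition of growth. Definition used: TGI = concentration required for complete inhibition of growth.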

Columns and labels:
Assay in all cases: DTP human tumour cell line panel, 48 h
[1] = tested on: HS 578T breast
[2] = tested on: MDA-N
[3] = tested on: LXFL 529 NSCLC
[4] = tested on: SNB-78 CNS
[5] = tested on: HOP-18 NSCLC
[6] = tested on: DMS 114 small cell lung
[7] = tested on: DMS 273 small cell lung
[8] = tested on: XF 498 CNS

| Structure (SMILES) | GI50 [1] | TGI [1] | TGI [2] [µM] | also measured |
| --- | --- | --- | --- | --- |
| Cc1cn2c(/C=C3\C(=O)Nc4ccc(O)cc43)c(-c3ccc(Cl)cc3)nc2s1 | 21.1 µM | 84.1 µM | – | – |
| CCSc1[nH]c(Nc2nc(-c3ccccc3)n(-c3ccccc3)n2)c(C(N)=O)c1C(N)=O | – | – | > 10 | – |
| CCN1CCN=c2c3cc(OC)ccc3n3cnc4ccc1c2c43 | – | 0.866 µM | 1.11 | – |
| C1CSCCSCCS1 | – | – | > 100 | – |
| O=C1c2ccccc2C2(O)c3cc4ccccc4cc3OC12O (stereo unspecified) | – | – | – | TGI [3]: > 100 µM; TGI [4]: > 100 µM; TGI [5]: > 100 µM; TGI [6]: 99 µM; TGI [7]: > 100 µM |
| C=CC(=O)N1CCC(C2CCNc3c(C(N)=O)c(-c4ccc(Oc5ccccc5)cc4)nn32)CC1 (stereo unspecified) | 20.6 µM | 78.4 µM | – | – |
| Oc1cc(O)c2c(c1)OC(c1ccc(O)c(O)c1)C(OC1(c3cc(O)c(O)c(O)c3)Oc3cc(O)cc(O)c3C(O)C1O)C2 (stereo unspecified) | – | > 86.1 µM | 49.5 | – |
| N#Cc1c(-c2ccc(F)cc2)c(-c2ccc(F)cc2)nn(CCO)c1=O | – | 12.1 µM | 0.121 | – |
| O=c1c2ccccc2sc2cccc(NCCCN3CCN(CCCNc4cccc5sc6ccccc6c(=O)c45)CC3)c12 | – | > 100 µM | > 100 | – |
| O=C(CC(O)(C(F)(F)F)C(F)(F)F)c1cc(CC(=O)C(O)(C(F)(F)F)C(F)(F)F)cc(CC(=O)C(O)(C(F)(F)F)C(F)(F)F)c1 | – | > 10 µM | > 9.13 | – |
| COc1cccc2c1C(=O)c1c(O)c3c(c(O)c1C2=O)CC(O)(/C(C)=N/NC(=O)CCC(=O)N/N=C(\C)C1(O)Cc2c(O)c4c(c(O)c2C(OC2CC(N)C(O)C(C)O2)C1)C(=O)c1c(OC)cccc1C4=O)CC3OC1CC(N)C(O)C(C)O1 (stereo unspecified) | 0.261 µM | 2.3 µM | – | – |
| Cc1nc2ccccc2nc1-c1ccc(N=[N+]([O-])c2ccc(-c3nc4ccccc4nc3C)cc2)cc1 | – | > 95.9 µM | > 100 | – |
| Nc1nccc2c1ccn2-c1ccc(NC(=O)c2ccc(N3CCOCC3)c(C(F)(F)F)c2)cc1 | 0.22 µM | 0.88 µM | – | – |
| Cn1cnc([N+](=O)[O-])c1S(=O)(=O)Oc1ccccc1 | 24.6 µM | > 80.5 µM | – | – |
| O=C(O)CSc1n[nH]c(-c2ccccc2)n1 | – | – | – | TGI [8]: > 100 µM; TGI [3]: > 100 µM; TGI [5]: > 100 µM; TGI [7]: > 100 µM |
| NS(=O)(=O)c1ccc(N(/C=C/C(=O)C(F)(F)F)CC(=O)c2ccc(Cl)cc2)cc1 | > 100 µM | > 100 µM | – | – |
| CCOC(=O)NC(=O)c1cn(CCOC(=O)NCCCCCCNC(=O)OCCn2cc(C(=O)NC(=O)OCC)c(=O)[nH]c2=O)c(=O)[nH]c1=O | – | – | – | TGI [3]: > 100 µM; TGI [4]: > 100 µM; TGI [5]: > 100 µM; TGI [6]: > 100 µM; TGI [7]: > 100 µM |
| C[C@H]1Oc2cc(cnc2N)-c2c(nn(C)c2C#N)CN(C)C(=O)c2ccc(F)cc21 | 18.3 µM | > 100 µM | – | – |
| COC12C=C/C(=C(/C(=O)OCc3ccncc3)C(=O)CCCCCCCCC3(OC)C=C/C(=C(/C(=O)OCc4ccncc4)C(=O)CCCCCCCC1)O3)O2 | 1.75 µM | 15.4 µM | – | – |
| O=C(c1ccc(Cl)cc1)c1cnc(Nc2ccccc2Cl)s1 | – | 68.8 µM | 50.1 | TGI [3]: 32.8 µM; TGI [6]: 66.7 µM; TGI [7]: 42.9 µM |

| Structure (SMILES) | GI50 [1] | TGI [1] | TGI [2] [µM] | also measured |
| --- | --- | --- | --- | --- |
| CC1(C)OCCn2c1nc1c(N3CCOCC3)nc(-c3cnc(N)nc3)nc12 | 0.135 µM | 0.981 µM | – | – |
| CCCn1c(N)c(C(=O)N/N=C(/C)c2cc3cccc(OC)c3o2)sc1=S | 17.7 µM | 69.9 µM | – | – |
| O=C(c1c(F)ccc(NS(=O)(=O)N2CC[C@@H](F)C2)c1F)c1c[nH]c2ncc(-c3cnc(C4CC4)nc3)cc12 | 2.33 µM and 2.06 µM | > 10 µM and 15.7 µM | – | – |
| CCOc1ccc2nc(S/C(=C/C=C(C#N)C#N)c3ccc(C)cc3)sc2c1 | 32.2 µM | 88.4 µM | – | – |
| Cc1[nH]c2ccccc2c1-c1cc(-c2cc(-c3c(C)[nH]c4ccccc34)on2)no1 | – | 90.6 µM | 48.3 | – |
| CCCNC(=S)/N=C/c1c(O)c2ccccc2[nH]c1=O | – | > 100 µM | > 100 | – |
| O=C(Nc1cc(Cl)ccc1Cl)c1cc2cccc(Cl)c2oc1=O | – | – | – | TGI [8]: > 100 µM; TGI [5]: > 100 µM; TGI [6]: > 100 µM; TGI [7]: > 100 µM |
| COc1ccc(-c2oc(=O)ccc2-c2cc(OC)c(OC)c(OC)c2)cc1F | 23.9 µM | > 100 µM | – | – |
| CC(=O)OC12c3ccccc3-c3ccccc3C1C1C(=O)N(C)C(=O)C12Cl (stereo unspecified) | – | > 10 µM | > 10 | – |
| O=C(c1ccc(F)c(F)c1Nc1ccc(I)cc1F)N1CC(O)([C@@H]2CCCCN2)C1 | 5.05 µM and > 6.42 µM | 29.3 µM and > 10 µM | – | – |
| CC(CC(=O)O)C(C(=O)O)C(=O)O (stereo unspecified) | – | > 100 µM | > 100 | – |
| Cc1ccc(Cn2c(C)nc3c2C(=O)c2ccccc2C3=O)cc1 | – | – | – | TGI [8]: 47.6 µM; TGI [3]: 58 µM; TGI [4]: > 100 µM; TGI [7]: 19 µM |
| O=C(NC(=O)c1cn(CCNCCO)c(=O)[nH]c1=O)OCc1ccccc1 | – | – | – | TGI [3]: > 100 µM; TGI [4]: > 100 µM; TGI [6]: > 100 µM |
| O=C(N/N=C1/C(=O)N(c2ccc(Cl)cc2Cl)C(=O)C(=O)C1c1nc2ccccc2o1)c1ccccc1O (stereo unspecified) | – | – | – | TGI [8]: 75.2 µM; TGI [3]: > 100 µM; TGI [6]: 78.5 µM |
| O=c1cc(-c2ccccc2)[nH]c2c(S)cccc12 | – | > 100 µM | > 100 | – |
| CCCCCCNC(=O)c1nc(-c2ccccc2)oc1Cc1ccc(OP(=O)(O)O)cc1 | 18.7 µM | 54.8 µM | – | – |
| CC1=CC(=O)[C@@H](O)[C@]2(C)[C@H]3[C@@]4(O)OC[C@]35[C@H]([C@@H](C)[C@H]4O)[C@@H](O)C(=O)O[C@@H]5C[C@@H]12 | – | 1.19 µM | 0.869 | – |
| COc1ccc(C(O)c2nccn2C)c(OC)c1 (stereo unspecified) | – | – | > 100 | – |
| CCN(CC)CCOc1ccc(/C=C2\CC3C4CC=C5C[C@@H](O)CC[C@]5(C)C4CC[C@]3(C)C2=O)cc1OC (stereo partly specified) | 5.62 µM | 33.7 µM | – | – |
| c1ccc(SC2CCSc3ccccc3C2Sc2ccccc2)cc1 (stereo unspecified) | – | – | – | TGI [8]: > 100 µM; TGI [3]: > 100 µM; TGI [4]: > 100 µM; TGI [7]: > 100 µM |

| Structure (SMILES) | GI50 [1] | TGI [1] | TGI [2] [µM] | also measured |
| --- | --- | --- | --- | --- |
| CCN(CC)c1nc(-c2ccc(Cl)cc2Cl)nc2ccccc12 | 8.82 µM | 35.1 µM | – | – |
| COC1[C@@H](OC(C)=O)[C@@H](NC(=O)C(Cl)(Cl)Cl)C(I)[C@@H](N2C(=O)c3ccccc3C2=O)[C@H]1OC (stereo partly specified) | – | – | – | TGI [3]: > 100 µM; TGI [4]: > 100 µM; TGI [5]: > 100 µM; TGI [6]: > 100 µM; TGI [7]: > 100 µM |
| Nc1nc(N)c(N=Nc2ccc([As](=O)(O)O)cc2)c(=O)[nH]1 | – | > 100 µM | > 100 | – |
| Cc1csc(Nc2nc(-c3cccc(Br)c3)nc(C(Cl)(Cl)Cl)n2)n1 | 2.94 µM | > 100 µM | – | – |
| Ic1ccc(-n2nnnc2-c2cnoc2-c2ccccc2)cc1 | 42.7 µM | 98.4 µM | – | – |
| CS(=O)(=O)CCCn1c(=O)c(Oc2ccc(F)cc2F)cc2cnc(NC3CCOCC3)nc21 | > 25 µM | > 25 µM | – | – |
| CC(=C\c1ccccc1)/C=C(\C#N)C(N)=O | – | > 10 µM | > 10 | – |
| COc1cc(C2c3cc4c(cc3C(O)C(CO)C2CO)OCO4)cc(OC)c1OC (stereo unspecified) | 0.623 µM | – | – | – |
| COc1c(OC)c(OC)c(C(=O)/C=C/c2ccccc2)c(OC)c1OC | – | > 100 µM | 70.2 | – |
| O=c1[nH]c(=O)n(C2CC(O)C(CO)O2)cc1CO (stereo unspecified) | > 100 µM | > 100 µM | – | – |
| Cc1ccc(Cl)cc1Nc1nc(C(F)(F)F)ccc1C(=O)N1CCN(c2cccc(Cl)c2)CC1 | 47.9 µM | > 100 µM | – | – |
| Cc1ccc(-c2nc3ccc([N+](=O)[O-])cc3[nH]2)cc1 | – | > 100 µM | > 100 | – |
| C[C@H]1NC(=O)C2CCCCN2C(=O)CN(C)C(=O)CNC(=O)C2CCCCN2C(=O)[C@@H](NC(=O)c2nc3ccccc3cc2O)[C@@H](C)NC(=O)C2CCCCN2C(=O)CN(C)C(=O)CNC(=O)[C@@H]2CCCCN2C(=O)C1NC(=O)c1nc2ccccc2cc1O (stereo partly specified) | – | – | – | TGI [3]: 0.646 µM; TGI [4]: 11.5 µM; TGI [6]: 0.703 µM; TGI [7]: 1.07 µM |
| Cc1ccc(/C=C/c2c(C(=O)/C=C/c3ccc(C(F)(F)F)cc3)c(C)nc3ccccc23)cc1 | 1.66 µM | 4.63 µM | – | – |
| COC1C(O)=C2C(=O)O/C(C)=C/C=C/C=C/C=C\CC(c3ccccc3)NC(=O)\C=C/C=C\C=C\C=C\[C@@]2(C)[C@@H]1O (stereo partly specified) | – | 0.0395 µM | 0.265 | TGI [8]: 0.304 µM; TGI [6]: 0.357 µM |
| CC(C)=CCc1cc(O)cc2c1OC(C=C(C)C)C1=C2C(=O)C2=C(NCCS2(=O)=O)C1=O (stereo unspecified) | 3.48 µM | 11.9 µM | – | – |
| COc1ccc(NC(=O)/C(N=O)=C(/C)O)cc1 | – | – | – | TGI [3]: > 100 µM; TGI [4]: > 100 µM; TGI [5]: > 100 µM; TGI [6]: > 100 µM; TGI [7]: > 100 µM |
| Cc1nc2cnc(N)c(C#Cc3cncc(C(=O)Nc4ccc(CN5CCN(C)CC5)c(C(F)(F)F)c4)c3)c2nc1C | 0.541 µM | 5.66 µM | – | – |
